Structures can show the parent of a compound that is named as a salt.
These compounds were tested on MTT (mouse pheochromocytoma) (assay: IC50 of cell viability (ATP content)). Settings: (24 or 48 h).
Method in brief: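 Library compounds were tested at 8 final concentrations (0.5 nM to 46 µM) on MTT mouse pheochromocytoma cells for 24 or 48 hrs, with readout by CellTiter-Glo ATP luminescence. Signals were normalised with positive-control wells at 100% and DMSO wells at 0%. IC50 values were obtained by a four-parameter logistic fit.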

IC50 of cell viability [µM] | SMILES
> 46 | CN1CCN(C2=Nc3cc(F)ccc3Cc3ccccc32)CC1 [Fluperlapine]
> 46 | NC(=O)c1cccnc1 [Niacinamide]
> 46 | C[C@@H]1CN(c2c(F)c(F)c3c(=O)c(C(=O)O)cn(C4CC4)c3c2F)C[C@H](C)N1 [Orbifloxacin]
> 46 | COc1ccc(C(Cl)=C(c2ccc(OC)cc2)c2ccc(OC)cc2)cc1 [Chlorotrianisene]
> 46 | NC(=O)C1c2ccccc2CCc2ccccc21 [Cyheptamide]
> 46 | CCCCCCCCCCCC(=O)N(CCO)CCO [LAURIC DIETHANOLAMIDE]
> 46 | COc1ccccc1OCC1CNC(=O)O1 (stereo not given) [Mephenoxalone]
> 46 | CN1CCc2c(c3ccccc3n2Cc2ccccc2)C1.CN1CCc2c(c3ccccc3n2Cc2ccccc2)C1.O=[S+]([O-])(O)c1cccc2c([S+](=O)([O-])O)cccc12 [Mebhydroline 1,5-naphtalenedisulfonate]
> 46 | Cc1cc(N)c2cc(NC(=O)Nc3ccc4nc(C)cc(N)c4c3)ccc2n1 [AMINOQUINURIDUM]
> 46 | C[C@]12CC[C@@H]3c4ccc(O)cc4CC[C@H]3[C@@H]1CCC2OC(=O)CCC1CCCC1 (stereo not given in full) [ESTRADIOL CYPIONATE]
> 46 | OC1OC[C@@H](O)[C@H](O)[C@@H]1O (stereo not given in full) [Xylose]
> 46 | CN1C(=O)C[C@H](c2ccccc2)C1=O [Phensuximide]
> 46 | COC(=O)[C@H]1[C@H]2C[C@@H]3c4[nH]c5cc(OC)ccc5c4CCN3C[C@H]2C[C@@H](OC(=O)c2cc(OC)c(OC)c(OC)c2)[C@@H]1OC [Reserpine]
> 46 | CN/C(=N\c1ccc(C2=NNC(=O)CC2C)cc1)NC#N (stereo not given) [Siguazodan]
> 46 | O=C1CC[C@@H](C(=O)O)N1 [PYRROLIDONE CARBOXYLIC ACID]
> 46 | Nc1nc(N)c(-c2ccccc2)s1 [AMIPHENAZOLUM]
> 46 | CCN(CCO)CCCC(C)Nc1ccnc2cc(Cl)ccc12 (stereo not given) [HYDROXYCHLOROQUINE SULFATE]
> 46 | OCc1ccccn1 [Piconol]
> 46 | CC(C)=CCC/C(C)=C/CC/C(C)=C/CCC(=O)OC/C=C(\C)CCC=C(C)C [Geranyl farnesylacetate]
> 46 | COc1cccc(OC)c1C(=O)NC1C(=O)N2C1SC(C)(C)C2C(=O)[O-].[Na+] (stereo not given) [METHICILLIN SODIUM]
> 46 | COc1ccccc1OC[C@H](O)CO [Guaifenesin]
> 46 | O=C(O)CCCCC1CCSS1 (stereo not drawn) [alpha-Lipoic acid]
> 46 | Cc1ccc(C2(O)CCN(CCCC(=O)c3ccc(F)cc3)CC2)cc1 [Moperone]
> 46 | CN(C)CC[C@@](O)(c1ccccc1)c1ccccc1Cl [CHLOPHEDIANOL HYDROCHLORIDE]
> 46 | O=P(O)(O)OP(=O)(O)OP(=O)(O)O.[NaH] [SODIUM TRIPOLYPHOSPHATE]
> 46 | CN(C)CCCOC1C(C(O)CO)OC2OC(C)(C)O[C@@H]21.Cl (stereo not given in full) [AMIPRILOSE]
> 46 | CCOC(=O)C(CCc1ccccc1)NC(C)C(=O)N1Cc2ccccc2CC1C(=O)O.Cl (stereo not given) [QUINAPRIL HYDROCHLORIDE]

SMILES | IC50 of cell viability [µM]
CN1C(=O)CC[S+](=O)([O-])C1c1ccc(Cl)cc1 (stereo not given) [Chlormezanone] | > 46
C[C@@H](Cc1ccc(O)cc1)NC[C@@H](O)c1cc(O)cc(O)c1 [Fenoterol hydrobromide] | > 46
CN[C@@H]1C[C@@H](c2ccc(Cl)c(Cl)c2)c2ccccc21.Cl [Indatraline hydrochloride] | > 46

From the supplement of paper PMC3974653
